Experiments:
wild oat [1] = assay: Test Example 5: herbicidal effect by foliage application, plastic box (Table 20, symbol I); type: in vivo, wild oat (Avena fatua); conditions: 320 g/ha, foliage application after 14-day growth, evaluated three weeks after application
Method in brief: (§1)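 Foliar spray test: emulsion formulation diluted in water to a set application rate, sprayed onto 14-day-old plants raised in diluvial soil at 25° C to 30° C under glass. Both herbicidal effect and crop effect rated visually three weeks later.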

blackgrass [2] = assay: Test Example 5: herbicidal effect by foliage application, plastic box (Table 20, symbol J); type: in vivo, blackgrass (Alopecurus myosuroides); conditions: 320 g/ha, foliage application after 14-day growth, evaluated three weeks after application
Method in brief: as §1

late watergrass = assay: Test Example 2: herbicidal activity, application during weed generation under submerged conditions (Table 17, symbol A); type: in vivo, late watergrass (Echinochloa oryzicola); conditions: AAH 320 g/ha; application during weed generation, submerged conditions
Method in brief: (§2)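 Steps: fill Wagner pots with alluvial soil; add water to give 4 cm depth; sow the species mixed; grow under glass at 25–30° C.; at 1–2 leaves apply water-diluted emulsion formulation to the water surface at a fixed herbicide amount; score after 3 weeks.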

southern crabgrass [3] = assay: Test Example 5: herbicidal effect by foliage application, plastic box (Table 20, symbol F); type: in vivo, southern crabgrass (Digitaria ciliaris); conditions: 320 g/ha, foliage application after 14-day growth, evaluated three weeks after application
Method in brief: as §1

velvetleaf [4] = assay: Test Example 4: herbicidal effect by soil treatment (Table 19, symbol M); type: in vivo, velvetleaf (Abutilon theophrasti); conditions: amount of applied herbicide 320 g/ha
Method in brief: (§3)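 Herbicidal effect was rated 3 weeks after treatment, using the scoring criteria of an earlier test. The compound, formulated as an emulsion and diluted in water to a set herbicide amount, had been sprayed uniformly on soil over freshly sown seeds. Growth took place in a greenhouse at 25° C. to 30° C.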

windgrass [5] = assay: Test Example 5: herbicidal effect by foliage application, plastic box (Table 20, symbol L); type: in vivo, windgrass (Apera spica-venti); conditions: 320 g/ha, foliage application after 14-day growth, evaluated three weeks after application
Method in brief: as §1

chickweed [6] = assay: Test Example 5: herbicidal effect by foliage application, plastic box (Table 20, symbol P); type: in vivo, common chickweed (Stellaria media); conditions: 320 g/ha, foliage application after 14-day growth, evaluated three weeks after application
Method in brief: as §1

lambsquarters [7] = assay: Test Example 4: herbicidal effect by soil treatment (Table 19, symbol O); type: in vivo, lambsquarters (Chenopodium album); conditions: amount of applied herbicide 320 g/ha
Method in brief: as §3

Italian ryegrass [8] = assay: Test Example 4: herbicidal effect by soil treatment (Table 19, symbol K); type: in vivo, Italian ryegrass (Lolium multiflorum); conditions: amount of applied herbicide 320 g/ha
Method in brief: as §3

wild oat [9] = assay: Test Example 4: herbicidal effect by soil treatment (Table 19, symbol I); type: in vivo, wild oat (Avena fatua); conditions: amount of applied herbicide 320 g/ha
Method in brief: as §3

southern crabgrass [10] = assay: Test Example 4: herbicidal effect by soil treatment (Table 19, symbol F); type: in vivo, southern crabgrass (Digitaria ciliaris); conditions: amount of applied herbicide 320 g/ha
Method in brief: as §3

barnyard grass [11] = assay: Test Example 4: herbicidal effect by soil treatment (Table 19, symbol H); type: in vivo, barnyard grass (Echinochloa crus-galli); conditions: amount of applied herbicide 320 g/ha
Method in brief: as §3

redroot pigweed [12] = assay: Test Example 4: herbicidal effect by soil treatment (Table 19, symbol N); type: in vivo, redroot pigweed (Amaranthus retroflexus); conditions: amount of applied herbicide 320 g/ha
Method in brief: as §3

green foxtail [13] = assay: Test Example 5: herbicidal effect by foliage application, plastic box (Table 20, symbol G); type: in vivo, green foxtail (Setaria viridis); conditions: 320 g/ha, foliage application after 14-day growth, evaluated three weeks after application
Method in brief: as §1

barnyard grass [14] = assay: Test Example 3: herbicidal effect by foliage application, Wagner pot (Table 18, symbol H); type: in vivo, barnyard grass (Echinochloa crus-galli); conditions: 320 g/ha
Method in brief: (§4)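 Plants were sown in alluvial soil held under 0.1–0.5 cm standing water and grown 14 days in a greenhouse at 25–30 °C. An emulsifiable formulation, water-diluted to the set dose, was then sprayed onto the foliage, and effects were scored three weeks later using previously defined criteria.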

oval-leafed pondweed = assay: Test Example 2: herbicidal activity, application during weed generation under submerged conditions (Table 17, symbol C); type: in vivo, oval-leafed pondweed (Monochoria vaginalis); conditions: AAH 320 g/ha; application during weed generation, submerged conditions
Method in brief: as §2

blackgrass [15] = assay: Test Example 4: herbicidal effect by soil treatment (Table 19, symbol J); type: in vivo, blackgrass (Alopecurus myosuroides); conditions: amount of applied herbicide 320 g/ha
Method in brief: as §3

velvetleaf [16] = assay: Test Example 5: herbicidal effect by foliage application, plastic box (Table 20, symbol M); type: in vivo, velvetleaf (Abutilon theophrasti); conditions: 320 g/ha, foliage application after 14-day growth, evaluated three weeks after application
Method in brief: as §1

chickweed [17] = assay: Test Example 4: herbicidal effect by soil treatment (Table 19, symbol P); type: in vivo, common chickweed (Stellaria media); conditions: amount of applied herbicide 320 g/ha
Method in brief: as §3

windgrass [18] = assay: Test Example 4: herbicidal effect by soil treatment (Table 19, symbol L); type: in vivo, windgrass (Apera spica-venti); conditions: amount of applied herbicide 320 g/ha
Method in brief: as §3

green foxtail [19] = assay: Test Example 4: herbicidal effect by soil treatment (Table 19, symbol G); type: in vivo, green foxtail (Setaria viridis); conditions: amount of applied herbicide 320 g/ha
Method in brief: as §3

Italian ryegrass [20] = assay: Test Example 5: herbicidal effect by foliage application, plastic box (Table 20, symbol K); type: in vivo, Italian ryegrass (Lolium multiflorum); conditions: 320 g/ha, foliage application after 14-day growth, evaluated three weeks after application
Method in brief: as §1

persian speedwell [21] = assay: Test Example 5: herbicidal effect by foliage application, plastic box (Table 20, symbol R); type: in vivo, Persian speedwell (Veronica persica); conditions: 320 g/ha, foliage application after 14-day growth, evaluated three weeks after application
Method in brief: as §1

persian speedwell [22] = assay: Test Example 4: herbicidal effect by soil treatment (Table 19, symbol R); type: in vivo, Persian speedwell (Veronica persica); conditions: amount of applied herbicide 320 g/ha
Method in brief: as §3

Japanese bulrush = assay: Test Example 2: herbicidal activity, application during weed generation under submerged conditions (Table 17, symbol B); type: in vivo, Japanese bulrush (Schoenoplectus juncoides); conditions: AAH 320 g/ha; application during weed generation, submerged conditions
Method in brief: as §2

lambsquarters [23] = assay: Test Example 5: herbicidal effect by foliage application, plastic box (Table 20, symbol O); type: in vivo, lambsquarters (Chenopodium album); conditions: 320 g/ha, foliage application after 14-day growth, evaluated three weeks after application
Method in brief: as §1

redroot pigweed [24] = assay: Test Example 5: herbicidal effect by foliage application, plastic box (Table 20, symbol N); type: in vivo, redroot pigweed (Amaranthus retroflexus); conditions: 320 g/ha, foliage application after 14-day growth, evaluated three weeks after application
Method in brief: as §1

Chinese sprangletop = assay: Test Example 3: herbicidal effect by foliage application, Wagner pot (Table 18, symbol D); type: in vivo, chinese sprangletop (Leptochloa chinensis); conditions: 320 g/ha
Method in brief: as §4

barnyard grass [25] = assay: Test Example 5: herbicidal effect by foliage application, plastic box (Table 20, symbol H); type: in vivo, barnyard grass (Echinochloa crus-galli); conditions: 320 g/ha, foliage application after 14-day growth, evaluated three weeks after application
Method in brief: as §1

rice flat sedge = assay: Test Example 3: herbicidal effect by foliage application, Wagner pot (Table 18, symbol E); type: in vivo, rice flat sedge (Cyperus iria); conditions: 320 g/ha
Method in brief: as §4

## CCCC(=O)Oc1c(C)nn(C)c(=O)c1-c1c(-c2ccc(F)cc2)sc2c(Cl)cccc12 [4-016]
Wild oat [1]
  herbicidal effect on I: wild oat (evaluation grade 0-5): 3 (Herbicidal rate of 40% or more and less than 70%)
Blackgrass [2]
  herbicidal effect on J: blackgrass (evaluation grade 0-5): 0 (Herbicidal rate of 5% or less (almost no effect))
Late watergrass
  herbicidal effect rating, A: late watergrass: 2 (Herbicidal rate of 20% or more and less than 40%)
Southern crabgrass [3]
  herbicidal effect on F: southern crabgrass (evaluation grade 0-5): 0 (Herbicidal rate of 5% or less (almost no effect))
Velvetleaf [4]
  Herbicidal effect by soil treatment, M: velvetleaf: 0 (Herbicidal rate of 5% or less (almost no effect))
Windgrass [5]
  herbicidal effect on L: windgrass (evaluation grade 0-5): 5 (Herbicidal rate of 90% or more (almost completely withered))
Chickweed [6]
  herbicidal effect on P: chickweed (evaluation grade 0-5): 5 (Herbicidal rate of 90% or more (almost completely withered))
Lambsquarters [7]
  Herbicidal effect by soil treatment, O: lambsquarters: 1 (Herbicidal rate of 5% or more and less than 20%)
Italian ryegrass [8]
  Herbicidal effect by soil treatment, K: Italian ryegrass: 0 (Herbicidal rate of 5% or less (almost no effect))
Wild oat [9]
  Herbicidal effect by soil treatment, I: wild oat: 0 (Herbicidal rate of 5% or less (almost no effect))
Southern crabgrass [10]
  Herbicidal effect by soil treatment, F: southern crabgrass: 2 (Herbicidal rate of 20% or more and less than 40%)
Barnyard grass [11]
  Herbicidal effect by soil treatment, H: barnyard grass: 1 (Herbicidal rate of 5% or more and less than 20%)
Redroot pigweed [12]
  Herbicidal effect by soil treatment, N: redroot pigweed: 3 (Herbicidal rate of 40% or more and less than 70%)
Green foxtail [13]
  herbicidal effect on G: green foxtail (evaluation grade 0-5): 0 (Herbicidal rate of 5% or less (almost no effect))
Barnyard grass [14]
  herbicidal effect on barnyard grass (H): 3 (Herbicidal rate of 40% or more and less than 70%)
oval-leafed pondweed
  herbicidal effect rating, C: oval-leafed pondweed: 0 (Herbicidal rate of 5% or less (almost no effect))
Blackgrass [15]
  Herbicidal effect by soil treatment, J: blackgrass: 0 (Herbicidal rate of 5% or less (almost no effect))
Velvetleaf [16]
  herbicidal effect on M: velvetleaf (evaluation grade 0-5): 5 (Herbicidal rate of 90% or more (almost completely withered))
Chickweed [17]
  Herbicidal effect by soil treatment, P: chickweed: 1 (Herbicidal rate of 5% or more and less than 20%)
Windgrass [18]
  Herbicidal effect by soil treatment, L: windgrass: 0 (Herbicidal rate of 5% or less (almost no effect))
Green foxtail [19]
  Herbicidal effect by soil treatment, G: green foxtail: 3 (Herbicidal rate of 40% or more and less than 70%)
Italian ryegrass [20]
  herbicidal effect on K: Italian ryegrass (evaluation grade 0-5): 0 (Herbicidal rate of 5% or less (almost no effect))
Persian speedwell [21]
  herbicidal effect on R: persian speedwell (evaluation grade 0-5): 3 (Herbicidal rate of 40% or more and less than 70%)
Persian speedwell [22]
  Herbicidal effect by soil treatment, R: persian speedwell: 0 (Herbicidal rate of 5% or less (almost no effect))
Japanese bulrush
  herbicidal effect rating, B: Japanese bulrush: 0 (Herbicidal rate of 5% or less (almost no effect))
Lambsquarters [23]
  herbicidal effect on O: lambsquarters (evaluation grade 0-5): 1 (Herbicidal rate of 5% or more and less than 20%)
Redroot pigweed [24]
  herbicidal effect on N: redroot pigweed (evaluation grade 0-5): 3 (Herbicidal rate of 40% or more and less than 70%)
Chinese sprangletop
  herbicidal effect on Chinese sprangletop (D): 5 (Herbicidal rate of 90% or more (almost completely withered))
Barnyard grass [25]
  herbicidal effect on H: barnyard grass (evaluation grade 0-5): 0 (Herbicidal rate of 5% or less (almost no effect))
Rice flat sedge
  herbicidal effect on rice flat sedge (E): 4 (Herbicidal rate of 70% or more and less than 90%)
